Laboratory results as given in ChEMBL document CHEMBL1125729, “A cardioselective, hydrophilic N,N,N-trimethylethanaminium alpha-tocopherol analogue that reduces myocardial infarct size” (J Med Chem, 1991).

Assays:
Rattus norvegicus [1] = species: Rattus norvegicus; experiment: Compound was evaluated for prevention of spontaneous lipid peroxidation in rat brain homogenate.; type: functional
[2] = Partition coefficient (logD) (octanol/phosphate buffer); type: physicochemical
Rattus norvegicus [3] = experiment: Total radioactivity 1 hour after intravenous administration of 1 mg/kg in rat blood.; type: functional
Rattus norvegicus [4] = experiment: Total radioactivity 1 hour after intravenous administration of 1 mg/kg in rat heart.; type: functional
[5] = Ratio of total radioactivity of skeletal muscle to blood in rats.
[6] = Ratio of total radioactivity of blood to blood in rats.
Rattus norvegicus [7] = experiment: Total radioactivity 1 hour after intravenous administration of 1 mg/kg in rat skeletal muscle.; type: functional, Muscle tissue
[8] = Ratio of total radioactivity of heart tissue to blood in rats.; type: tissue-based

Cc1c(C)c2c(c(C)c1O)CCC(C)(C(=O)O)O2 (stereo unspecified) [TROLOX]
IC50 (Rattus norvegicus [1]): 12 µM | logD [2]: -1.02

CC(=O)Oc1c(C)c(C)c2c(c1C)CCC(C)(CCN(C)C)O2 (stereo unspecified)
Total radioactivity (Rattus norvegicus [3]): 0.18 | Total radioactivity (Rattus norvegicus [4]): 0.28 | Ratio [5]: 1.5 | Ratio [6]: 1 | Total radioactivity (Rattus norvegicus [7]): 0.27 | Ratio [8]: 1.6 | logD [2]: 1.56

Cc1c(C)c2c(c(C)c1O)CCC(C)(CCN(C)C)O2 (stereo unspecified)
IC50 (Rattus norvegicus [1]): 0.5 µM | logD [2]: 1.15

CC(=O)Oc1c(C)c(C)c2c(c1C)CCC(C)(CC[N+](C)(C)C)O2 (stereo unspecified)
Total radioactivity (Rattus norvegicus [3]): 0.11 | Total radioactivity (Rattus norvegicus [4]): 2.28 | Ratio [5]: 1.7 | Ratio [6]: 1 | Total radioactivity (Rattus norvegicus [7]): 0.19 | Ratio [8]: 20.7 | logD [2]: -0.18

Cc1c(C)c2c(c(C)c1O)CC[C@@](C)(CCC[C@H](C)CCC[C@H](C)CCCC(C)C)O2 (racemic) [ALPHA-TOCOPHEROL]
IC50 (Rattus norvegicus [1]): 12 µM

Cc1c(C)c2c(c(C)c1O)CCC(C)(CC[N+](C)(C)C)O2 (stereo unspecified)
IC50 (Rattus norvegicus [1]): 1.7 µM | logD [2]: -0.6
